Results from patent publication US12427143B2, “Pharmaceutical composition for treating or preventing aging or age-related diseases” (INU RESEARCH & BUSINESS FOUNDATION, priority 2021, dated 2025).
Changes are numbered by the printed parent chain.

How the values were obtained:
senescent HDF [1] = assay: Seahorse analysis, ECAR (dependency of glycolysis); format: cell-based, human; details: HDF treated with compound, regardless of glucose
Description: (§1) FIG. 5 depicts the result of recovery of mitochondria based on the increased production of ATP. (A and B) Flow cytometric analysis of mitochondrial ROS and mitochondrial mass analysis using Mito tracker Green and MitoSOX; (C and D) measurement of non-glycotic glycolysis level and glycotic glycolysis level; (E) flow cytometry analysis of autophagosome level using CYTO-ID Green assay.
The XFe24 flux analyzer (Seahorse Bioscience XFe24 Instrument) was used according to the manufacturer's protocol. Briefly, 5×10^4 cells were distributed into each well of an XFe24 cell-culture plate from the XF24 FluxPak (100850-001; Seahorse Bioscience, North Billerica, MA, USA) and then cultured in a 5% CO2 incubator at a temperature of 37° C. for 16 h. Next, the medium was replaced by XF Assay medium (102365-100; Seahorse Bioscience), which lacked glucose, and the cells were then cultured for another 1 h in the same incubator. The extracellular acidification rate (ECAR) was measured using an XF Glycolysis Stress Test kit (102194-100; Seahorse Bioscience). ECAR was reported in mpH/min. As a metabolic shifter, aconitase inhibitor deferiprone (379409-5G; Sigma-Aldrich) was used.
Lastly, dependency of glycolysis was measured via ECAR.
Dependency of glycolysis in HDF treated with KB1541 decreased regardless of glucose like ATP study (FIGS. 5D and E).

senescent HDF cells = assay: Compound screening: cell proliferation of senescent fibroblasts (GelGreen fluorescence); format: cell-based, human; details: 27 drugs at 4 μM, 12 days, senescent HDF 1,000 cells per well
Procedure: FIG. 1 depicts the results of potential target screening for recovering senescence. Each of compounds was treated to a 96 well plate seeded with 1000 senescent cells (4 μM). After incubation for 12 days, the cells were stained with Gel green solution (1:1,000 in D.W.). Cell number was determined via fluorescence measurement using fluorescence microplate reader (excitation/emission 485 nm/535 nm).
Senescent fibroblasts were grown in 96-well plates at a density of 1,000 cells per well. Components from the library were diluted to a final concentration of 4 μM and added to the wells every 4 days. 12 days after drug treatment, cells were washed twice with phosphate-buffered saline (PBS) and lysed in 50 μl of 0.2% SDS. The plates were incubated at 37° C. for 1 h. GelGreen® Nucleic Acid Gel Stain (150 μl) (1:1,000 in DW; 41005; Biotium, Fremont, CA, USA) was added to the wells. Cell number was determined by measuring fluorescence intensity with VICTOR Multilabel Plate Reader (2030-0050; PerkinElmer, Waltham, MA, USA). The mean and standard deviation from six replicates were determined for each of experimental groups.
Cellular senescence is characterized by cell cycle arrest, and the inventors identified a compound recovering cell cycle arrest with additional anti-senescence effects. […] Relative cell proliferation was measured in terms of the senescent HDF. […]

senescent HDF [2] = assay: Mitochondrial mass by MitoTracker green flow cytometry; format: cell-based, human; details: HDF treated with compound
Procedure: as §1
(§2) For quantification of mitochondrial ROS, the cells were incubated in medium containing 5 μM MitoSOX (M36008; Life Technologies, Carlsbad, CA, USA) for 30 min at 37° C. For quantification of mitochondrial mass, the cells were incubated in medium containing 50 nM MitoTracker green (M22426; Life Technologies) for 30 min at 37° C. After staining, for the purpose of measuring mitochondrial membrane potential, cells were prepared for FACS analysis.
(§3) The capability of removing organelles having dysfunction in senescent cells is deteriorated. Recovery of autophagy prevents accumulation of dysfunctional mitochondria and resulting in signs of senescence recovery. Mitochondrial mass and autophagy were measured for identifying the function. Mitochondrial mass decreased in HDF treated with KB1541(FIG. 5B). Moreover, autophagy level increased in HDF treated with KB1541(FIG. 5C).

[3] = target: T1, Myc-14-3-3 zeta/delta(WT) / ATP synthase alpha and beta (Homo sapiens, UniProt P63104); assay: Co-immunoprecipitation of ATP synthase alpha and beta with Myc-14-3-3 zeta/delta(WT); format: cell-based; details: HEK293T, 4 μM
T1 construct: expressed in transfected cells; host or cells: HEK293T (CRL-11268; ATCC)
T1 sequence (P63104 1-245): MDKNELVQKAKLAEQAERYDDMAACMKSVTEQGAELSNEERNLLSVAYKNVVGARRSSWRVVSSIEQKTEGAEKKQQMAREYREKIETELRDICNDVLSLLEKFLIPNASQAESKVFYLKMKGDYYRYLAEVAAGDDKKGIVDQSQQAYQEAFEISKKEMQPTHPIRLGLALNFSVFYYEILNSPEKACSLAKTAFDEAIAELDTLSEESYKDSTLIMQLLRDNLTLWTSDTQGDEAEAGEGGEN
Procedure: (§4) pCMV-Myc-14-3-3 zeta/delta(WT) plasmid and pCMV-Myc-14-3-3 zeta/delta(S58A) plasmid were transfected with HEK293T(CRL-11268; ATCC). […] The treated cells were digested with 0.1% NP-40 cell lysis buffer to destroy cells, and IP (immunoprecipitation) of MIC60 subunit was performed using AccuNanoBeadm Streptavidin Magnetic Nanobeads (TA-1015-1; Bioneer, Daejeon, Korea). IP of 14-3-3 zeta/delta(WT) and 14-3-3 zeta/delta(S58A) were performed using anti-Myc tag antibody.
(§5) The PCR fragment of 14-3-3 zeta/delta (WT) and 14-3-3 zeta/delta (S58A) were separately cloned into pCMV-Myc-puromycin. HEK293T (CRL-11268; ATCC) were transfected with Lipofectaminem 2000 Transfection Reagent (11668-019; Thermo Scientific), Selection was carried out with puromycin 3 μg/ml.
(§6) Therefore, the 58th serine region of 14-3-3 zeta/delta was mutated to alanine to investigate its function. Myc-tag 14-3-3 zeta/delta(WT) vector and 14-3-3 zeta/delta(S58A) vector were transfected and overexpressed with HEK293T. Additionally, their interactions with endogenous ATP synthase alpha and beta were confirmed by IP (FIG. 4B).
(§7) As a result, ATP synthase alpha and beta proteins, which interacted with Myc-14-3-3 zeta/delta(WT) were increased KB1541 was treated to HEK293T at a concentration of 4 μM (FIG. 5B).

senescent HDF [4] = assay: Autophagy level (Cyto-ID flow cytometry); format: cell-based, human; details: HDF treated with compound
Procedure: as §1
Cells were incubated in medium containing 20 μM chloroquine (CQ; C6628, Sigma-Aldrich). At 24 h after incubation, cells were further stained with Cyto-ID staining solution and 50 nM LTDR (ENZ-51031-0050; ENZO, Lausen, Switzeland) for 30 min and prepared for FACS analysis. To measure background autofluorescence, cells were incubated in medium without dye. Fluorescence from Cyto-ID was normalized with fluorescence from LTDR. Autophagic flux was calculated using the following equation: ΔMFI Cyto-ID=MFI Cyto-ID (+CQ)/MFI Cyto-ID (−CQ).
as §3

[5] = target: T2, Myc-14-3-3 zeta/delta (S58A) / ATP synthase alpha and beta (Homo sapiens, UniProt P63104, S58A); assay: Co-immunoprecipitation of ATP synthase alpha and beta with Myc-14-3-3 zeta/delta(S58A); format: cell-based; details: HEK293T, performed in the same way (4 μM)
T2 construct: expressed in transfected cells; host or cells: HEK293T (CRL-11268; ATCC)
T2 sequence (P63104 1-245 S58A): T1 sequence (P63104 1-245) with S58A
Procedure: as §4, §5, §6, §7

senescent HDF [6] = assay: Mitochondrial ROS by MitoSOX flow cytometry; format: cell-based, human; details: versus senescent HDF
Procedure: as §1, §2
Reactive oxygen species (ROS) was identified and measured, which damages homeostasis and metabolism of normal mitochondria.

[7] = system: senescent HDF mitochondria; assay: Transmission electron microscopy of mitochondrial cristae; format: cell-based, human
Description: FIG. 6 depicts the result of mitochondria recovery induced by KB1541. (A) HDF mitochondria observed in transmission electron microscope 21 days after treated with KB1541. From left: Senescent (DMSO), Senescent (KB1541); (B) the length of cristae observed in transmission electron microscope.
The inventors studied level to cristae of mitochondria 12 days after senescent HDF treatment and identified senescence recovery. […] In graph where the images were quantified and represented, the length of cristae increased when treated with KB1541(FIG. 6B).

senescent HDF [8] = assay: Measurement of cellular ATP levels (oxphos and glycolysis portion); format: cell-based, human; details: versus senescent HDF
Procedure: Cells were incubated in medium with or without 20 μM oligomycin for 24 h and then lysed with lysis buffer. ATP content was measured using a ViaLight Plus Kit (LT07-221; Lonza, Basel, Switzerland) according to the manufacturer's instructions. DNA content was measured using AccuBlue broad range dsDNA quantitation kit (31007; Biotium, Fremont, CA, USA). For measurements of relative ATP content, the luminescence of each sample was normalized to the DNA content.
The inventors studied the changes in ATP production when assembling the ATP subunit based on the result of FIG. 4B. Oxphos portion was measured for identifying ATP resulting from oxidative phosphorylation in mitochondria cristae (FIG. 4C).
Moreover, glycolysis portion was measured for assessing the amount of ATP during glycolysis (FIG. 4D).

FC(F)(F)c1ccc(-c2nc3c(N4CCCC4)nc4ccccc4c3o2)cc1 [KB1541] was tested, and the “Dependency of glycolysis (ECAR)” value (senescent HDF [1]) was “decreased”, the “Relative cell proliferation, rank among screened compounds” value (senescent HDF cells) was “most effective compound on cell proliferation” and the Mitochondrial mass (senescent HDF [2]) was “decreased”. For the same compound, the “ATP synthase alpha and beta proteins interacting with Myc-14-3-3 zeta/delta(WT)” value [3] was “increased”, the Autophagy level (senescent HDF [4]) was “increased” and the “ATP synthase alpha and beta proteins interacting with Myc-14-3-3 zeta/delta (S58A)” value [5] was “did not change significantly”. For the same compound, the “Reactive oxygen species (mitochondrial ROS)” value (senescent HDF [6]) was “decreased in half”, the “Folds (cristae) of mitochondria in electron microscope images” value ([7]; 12 days after treatment) was “restored as well as increased” and the Length of cristae ([7]; quantified TEM images) was “increased”. For the same compound, the “Glycolysis portion of ATP production” value (senescent HDF [8]) was “reduced compared to senescent HDF” and the “Oxphos portion of ATP production” value (senescent HDF [8]) was “higher than senescent HDF”.
